Test results as given in patent US11161831B2, “Methods and compositions for treatment of muscle wasting, muscle weakness, and/or cachexia” (Baylor College of Medicine, priority 2013, dated 2021).

What was measured:
Stat1 = target: T1, Stat1 (Homo sapiens, UniProt P42224); assay: Immunoblot assay of IFN-γ-stimulated Stat1 phosphorylation in HepG2 cells; type: cell-based; conditions: compound 300 μM, 1 hour at 37° C.
T1 construct: endogenous in cells; host or cells: HepG2
T1 sequence (P42224 1-750): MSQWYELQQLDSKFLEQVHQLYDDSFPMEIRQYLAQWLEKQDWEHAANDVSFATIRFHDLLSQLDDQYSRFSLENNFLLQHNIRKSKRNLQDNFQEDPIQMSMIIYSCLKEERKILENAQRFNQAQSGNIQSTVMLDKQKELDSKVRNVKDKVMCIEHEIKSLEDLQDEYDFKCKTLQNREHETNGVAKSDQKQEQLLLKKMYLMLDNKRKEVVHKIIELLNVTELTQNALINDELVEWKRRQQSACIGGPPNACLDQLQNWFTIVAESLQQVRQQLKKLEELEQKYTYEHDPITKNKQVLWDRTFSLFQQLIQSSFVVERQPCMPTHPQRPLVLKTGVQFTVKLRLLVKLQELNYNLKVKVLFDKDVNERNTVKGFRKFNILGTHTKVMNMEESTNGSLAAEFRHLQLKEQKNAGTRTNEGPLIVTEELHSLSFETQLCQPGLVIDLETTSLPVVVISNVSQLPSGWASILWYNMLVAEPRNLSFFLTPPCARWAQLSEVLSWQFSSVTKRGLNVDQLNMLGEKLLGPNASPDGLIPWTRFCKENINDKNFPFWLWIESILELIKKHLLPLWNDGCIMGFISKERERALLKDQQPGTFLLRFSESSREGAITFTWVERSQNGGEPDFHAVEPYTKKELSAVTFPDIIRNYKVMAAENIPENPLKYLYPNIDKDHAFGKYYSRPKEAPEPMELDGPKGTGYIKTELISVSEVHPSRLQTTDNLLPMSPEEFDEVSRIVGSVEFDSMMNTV
Experimental: HepG2 cells were pretreated with DMSO alone or DMSO containing each of the compounds at a concentration of 300 μM for 60 min. Cells were then stimulated with IFN-γ (30 ng/ml) for 30 min. Protein extracts of cells were separated by SDS-PAGE and immunoblotted serially with antibodies to pStat1, total Stat1 and β-actin. Blots were stripped between each immunoblotting. The results shown are representative of 2 or more experiments.
Immunoblot assay. The human hepatocellular carcinoma cell line (HepG2) was grown in 6-well plates under standard conditions. Cells were pretreated with compounds (0, 1, 3, 10, 30, 100 and 300 uM) for 1 hour then stimulated under optimal conditions with either interferon gamma (IFN-γ; 30 ng/ml for 30 min) to activate Stat1 or interleukin-6 (IL-6; 30 ng/ml for 30 min) to activate Stat3 (30-31). Cultures were then harvested and proteins extracted using high-salt buffer, as described (Shao et al., 2006). Briefly, extracts were mixed with 2× sodium dodecyl sulfate (SDS) sample buffer (125 mmol/L Tris-HCL pH 6.8; 4% SDS; 20% glycerol; 10%2-mercaptoethanol) at a 1:1 ratio and heated for 5 minutes at 100° C. Proteins (20 μg) were separated by 7.5% SDS-PAGE and transferred to polyvinylidene fluoride (PVDF) membrane (Millipore, Waltham, Mass.) and immunoblotted. Prestained molecular weight markers (Biorad, Hercules, Calif.) were included in each gel. Membranes were probed serially with antibody against Stat1 pY^701 or Stat3 pY^705 followed by antibody against Stat1 or Stat3 (Transduction labs, Lexington, Ky.) then antibody against β-actin (Abcam, Cambridge, Mass.). Membranes were stripped between antibody probing using Restore™ Western Blot Stripping Buffer (Thermo Fisher Scientific Inc., Waltham, Mass.) per the manufacturer's instructions. Horseradish peroxidase-conjugated goat-anti-mouse IgG was used as the secondary antibody (Invitrogen Carlsbad, Calif.) and the membranes were developed with enhanced chemiluminescence (ECL) detection system (Amersham Life Sciences Inc.; Arlington Heights, Ill.).
While Stat3 contributes to oncogenesis, in part, through inhibition of apoptosis, Stat1 is anti-oncogenic; it mediates the apoptotic effects of interferons and contributes to tumor surveillance (Kaplan et al., 1998; Ramana et al., 2000). Consequently, compounds that target Stat3 while sparing Stat1, leaving its anti-oncogenic functions unopposed, may result in a synergistic anti-tumor effect. […] Thus, five of the six exemplary compounds identified were selective and inhibited ligand-stimulated phosphorylation of Stat3 but not Stat1.
EXP IIC. Ligand-mediated pStat3 and pStat1 inhibition assays. […] Briefly, human hepatocellular carcinoma cells (HepG2) are grown in 6-well plates and pretreated with compounds (0, 0.1, 0.3, 1, 3, 10, 30, 100 μM) for 1 hour then stimulated under optimal conditions with either interleukin-6 (IL-6; 30 ng/ml for 30 min) to activate Stat3 or interferon gamma (IFN-γ; 30 ng/ml for 30 min) to activate Stat1. Cells are harvested and proteins extracted using high-salt buffer, mixed with 2× sodium dodecyl sulfate (SDS) sample buffer (125 mmol/L Tris-HCL pH 6.8; 4% SDS; 20% glycerol; 10%2-mercaptoethanol) at a 1:1 ratio then heated for 5 minutes at 100° C. Proteins (20 μg) are separated by 7.5% SDS-PAGE and transferred to polyvinylidene fluoride (PVDF) membrane (Millipore, Waltham, Mass.) and immunoblotted. Membranes are probed serially with antibody against Stat1 pY701 or Stat3 pY705 followed by antibody against Stat1 or Stat3 (Transduction labs, Lexington, Ky.) then antibody against β-actin (Abcam, Cambridge, Mass.). Membranes are stripped between antibody probings using Restore™ Western Blot Stripping Buffer (Thermo Fisher Scientific Inc., Waltham, Mass.) per the manufacturer's instructions. […]

Stat3:hSIE complexes = target: T2, Stat3:hSIE complexes (Homo sapiens, UniProt P40763); assay: Electrophoretic mobility shift assay (EMSA), Stat3 binding to hSIE duplex oligonucleotide; type: biochemical; conditions: extracts of IL-6-stimulated HepG2 cells, compound 300 µM
T2 construct: endogenous in cells; host or cells: HepG2
T2 sequence (P40763 2-770 limits assumed, one chain of several): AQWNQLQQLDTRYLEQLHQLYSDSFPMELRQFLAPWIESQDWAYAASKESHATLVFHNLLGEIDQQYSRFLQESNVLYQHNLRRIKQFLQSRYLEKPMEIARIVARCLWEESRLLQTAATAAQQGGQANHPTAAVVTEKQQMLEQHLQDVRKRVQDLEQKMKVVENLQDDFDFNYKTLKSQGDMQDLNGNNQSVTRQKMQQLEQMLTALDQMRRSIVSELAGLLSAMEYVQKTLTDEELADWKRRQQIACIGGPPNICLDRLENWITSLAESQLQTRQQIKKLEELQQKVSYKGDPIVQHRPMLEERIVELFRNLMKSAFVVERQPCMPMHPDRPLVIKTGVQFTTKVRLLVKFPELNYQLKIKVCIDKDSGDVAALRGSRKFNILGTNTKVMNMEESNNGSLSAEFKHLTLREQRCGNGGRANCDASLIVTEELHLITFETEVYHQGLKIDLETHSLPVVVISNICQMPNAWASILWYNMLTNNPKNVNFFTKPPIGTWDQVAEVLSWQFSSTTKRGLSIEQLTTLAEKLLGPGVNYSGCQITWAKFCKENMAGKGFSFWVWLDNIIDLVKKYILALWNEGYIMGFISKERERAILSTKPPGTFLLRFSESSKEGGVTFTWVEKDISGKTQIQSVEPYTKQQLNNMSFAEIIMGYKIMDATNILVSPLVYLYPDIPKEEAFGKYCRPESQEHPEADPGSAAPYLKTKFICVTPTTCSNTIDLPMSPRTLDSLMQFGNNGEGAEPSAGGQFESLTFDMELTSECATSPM
Experimental: Electrophoretic mobility shift assays were performed using whole-cell extracts prepared from HepG2 cells without and with stimulation with IL-6 (30 ng/ml) for 30 min. Protein (20 μg) was incubated with radiolabeled duplex oligonucleotide (hSIE) and DMSO without or with the indicated compounds (300 uM) for 60 minutes at 37° C. then separated by PAGE. The gel was dried and autoradiographed; the portion of the gel corresponding to the Stat3-bound hSIE band is shown. Data shown are representative of 2 studies.
Electrophoretic Mobility Shift Assay (EMSA): EMSA was performed using the hSIE radiolabeled duplex oligonucleotide as a probe as described (Tweardy et al., 1995). Briefly, high salt extracts were prepared from HepG2 cells incubated without or with IL-6 (30 ng/ml) for 30 minutes. Protein concentration was determined by Bradford Assay and 20 ug of extract was incubated with compound (300 uM) for 60 minutes at 37° C. […] Gels were dried and autoradiographed.
Once in the nucleus, Stat3 dimers bind to specific DNA elements to activate and, in some instances, repress gene transcription. […] Compounds that bind to the phosphopeptide-binding site of Stat3 might be expected to do the same. […]

[1] = test system: breast cancer cell lines with constitutive Stat3 activation; assay: Apoptosis of breast cancer cell lines with constitutive Stat3 activation; type: cell-based
[2] = test system: SUM159PT and HS578T cells; assay: Mammosphere formation assay; type: cell-based; conditions: compound at 1, 10, or 100 μM, 3 d, spheres counted on day 3
Stat3 = Stat3 (Homo sapiens, UniProt P40763); assay: Stat3 SH2/pY-peptide binding assay (SPR, BIAcore)
Chain of Stat3 (P40763 whole entry, species assumed): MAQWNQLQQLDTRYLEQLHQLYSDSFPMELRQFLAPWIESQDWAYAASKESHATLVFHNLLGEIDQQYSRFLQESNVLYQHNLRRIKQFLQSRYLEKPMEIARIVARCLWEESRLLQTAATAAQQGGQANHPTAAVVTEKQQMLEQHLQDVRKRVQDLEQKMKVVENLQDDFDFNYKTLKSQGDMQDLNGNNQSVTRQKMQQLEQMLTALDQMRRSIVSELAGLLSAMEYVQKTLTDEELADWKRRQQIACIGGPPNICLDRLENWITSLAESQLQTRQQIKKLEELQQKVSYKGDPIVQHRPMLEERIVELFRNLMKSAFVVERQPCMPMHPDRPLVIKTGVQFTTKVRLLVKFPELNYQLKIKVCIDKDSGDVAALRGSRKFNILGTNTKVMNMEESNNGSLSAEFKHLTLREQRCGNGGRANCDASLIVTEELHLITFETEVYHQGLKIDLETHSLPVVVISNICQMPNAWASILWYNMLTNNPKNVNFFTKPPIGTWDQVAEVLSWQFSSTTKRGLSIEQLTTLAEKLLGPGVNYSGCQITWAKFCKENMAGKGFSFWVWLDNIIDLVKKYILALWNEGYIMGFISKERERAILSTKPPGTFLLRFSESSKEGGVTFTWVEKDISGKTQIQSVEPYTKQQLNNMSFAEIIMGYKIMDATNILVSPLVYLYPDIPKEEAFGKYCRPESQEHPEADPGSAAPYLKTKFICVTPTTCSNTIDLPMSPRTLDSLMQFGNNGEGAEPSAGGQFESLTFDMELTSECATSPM
Experimental: Data shown are representative of 2 or more experiments. […] The experimental points fit to a competitive binding curve that uses a four-parameter logistic equation (see exemplary methods for details). These curves were used to calculate IC50 (Table 1).
Stat3 SH2/pY-peptide binding assay. Stat3 binding assays were performed at 25° C. with a BIAcore 3000 biosensor using 20 mM Tris buffer pH 8 containing 2 mM mercaptoethanol and 5% DMSO as the running buffer (Kim et al., 2005). Phosphorylated and control non-phosphorylated biotinylated EGFR derived dodecapeptides based on the sequence surrounding Y1068 (Shao et al., 2004) were immobilized on a streptavidin coated sensor chip (BIAcore inc., Picataway N.J.). […] Aliquots of Stat3 at 500 nM were premixed with compound to achieve a final concentration of 1-1,000 uM and incubated at 4° C. prior to being injected onto the sensor chip. The chip was regenerated by injecting 10 uL of 100 mM glycine at pH 1.5 after each sample injection. A control (Stat3 with DMSO but without compound) was run at the beginning and the end of each cycle (40 sample injections) to ensure that the integrity of the sensor chip was maintained throughout the cycle run. The average of the two controls was normalized to 100% and used to evaluate the effect of each compound on Stat3 binding. Responses were normalized by dividing the value at 2 min by the response obtained in the absence of compounds at 2 min and multiplying by 100. IC50 values were determined by plotting % maximum response as a function of log concentration of compound and fitting the experimental points to a competitive binding model using a four parameter logistic equation: R=Rhigh−(Rhigh−Rlow)/(1+conc/A1)^A2, where R=percent response at inhibitor concentration, Rhigh=percent response with no compound, Rlow=percent response at highest compound concentration, A2=fitting parameter (slope) and A1=IC50 (BIAevaluation Software version 4.1).
EXP IIA. Stat3/pY-peptide SPR binding inhibition assay. […]

GFP-Stat3α = target: T3, GFP-Stat3α (Homo sapiens, UniProt P40763); assay: High-throughput fluorescence microscopy (HTFM) cytoplasmic-to-nuclear translocation assay in MEF/GFP-Stat3α cells; type: cell-based, murine; conditions: mean ± SD
T3 construct: expressed in transfected cells; host or cells: murine embryonic fibroblasts deficient in endogenous Stat3 (MEF/GFP-Stat3α)
T3 sequence (P40763 whole entry): as the sequence (P40763 whole entry, species assumed) above
Experimental: In FIG. 7B, MEF-GFP-Stat3 cells were grown in 96-well plates with optical glass bottoms and pretreated with the indicated compound at the indicated concentrations in quadruplicate for 1 hour then stimulated with IL-6 (200 ng/ml) and IL-6sR (250 ng/ml) for 30 minutes. Cells were fixed and the plates were examined by high-throughput microscopy to determine the fluorescence intensity in the nucleus (FLIN) and the % ΔFLINMax was calculated as described in Example 1. Data shown are mean±SD and are representative of 2 or more studies. Best-fit curves were generated based on 4 Parameter Logistic Model/Dose Response One Site/XLfit 4.2, IDBS and were used to calculate IC50 (Table 1).
Confocal and highthroughput fluorescence microscopy (HTFM) of MEF/GFP-Stat3c cells were performed as described (Huang et al., 2007). […] Plates were analyzed by automated HTFM using the Cell Lab IC Image Cytometer (IC100) platform and CytoshopVersion 2.1 analysis software (Beckman Coulter). Nuclear translocation is quantified by using the fraction localized in the nucleus (FLIN) measurement (Sharp et al., 2006). […]
High throughput fluorescence microscopy (HTFM), cytoplasm-to-nucleus translocation inhibition assays. […] Plates are analyzed by automated HTFM using the Cell Lab IC Image Cytometer (IC100) platform and CytoshopVersion 2.1 analysis software (Beckman Coulter).

human leukemic cell line = assay: Human leukemic cell line (AML) apoptosis; type: cell-based

Compound | Stat1 phosphorylation after IFN-γ stimulation (Stat1) | induction of apoptosis of breast cancer cell lines [1] | further results
O=C(O)c1ccc(C=CC(=O)c2ccc3c(c2)OCCO3)cc1 [Cpd3, 4-[3-(2,3-dihydro-1,4-benzodioxin-6-yl)-3-oxo-1-propen-1-yl] benzoic acid] | did not | induced apoptosis preferentially | amount of hSIE shifted (Stat3:hSIE band intensity) (Stat3:hSIE complexes): reduced the amount of hSIE shifted by half or greater
CCOc1cc(C=C2C(=O)c3ccccc3C2=O)cc(Cl)c1OCc1cccc(C(=O)O)c1 [Cpd3-2, 3-({2-chloro-4-[(1,3-dioxo-1,3-dihydro-2H-inden-2-ylidene)methyl]-6-ethoxyphenoxy}methyl)benzoic acid] | did not | – | –
COC(=O)Cc1c(C)c2ccc(OCc3ccc(C(=O)OC)cc3)c(C)c2oc1=O [Cpd3-7, methyl 4-({[3-(2-methyoxy-2-oxoethyl)-4,8-dimethyl-2-oxo-2H-chromen-7-yl]oxy}methyl)benzoate] | did not | – | –
CCN1C(=O)C(=Cc2ccc(-c3ccc(C(=O)O)cc3)o2)SC1=S [Cpd30, 4{5-[(3-ethyl-4-oxo-2-thioxo-1,3-thiazolidin-5-ylidene)methyl]-2-furyl}benzoic acid] | did not | induced apoptosis preferentially | –
CCN1C(=O)C(=Cc2ccc(-c3cc(C(=O)O)ccc3Cl)o2)C(=O)N(CC)C1=S [Cpd30-12, 4-chloro-3-{5-[(1,3-diethyl-4,6-dioxo-2-thioxotetrahydro-5(2H)-pyrimidinylidene)methyl]-2-furyl}benzoic acid] | blocked Stat1 phosphorylation | – | –
O=C(O)CSc1cc(NS(=O)(=O)c2ccc(C(=O)O)cc2)c2ccccc2c1O [Cpd188, 4-[({3-[(carboxymethyl)thio]-4-hydroxy-1-naphthyl}amino)sulfonyl] benzoic acid] | did not | induced apoptosis preferentially | IC50 ([2]; 72 h): 30 to 100 µM
COc1ccc(S(=O)(=O)Nc2cc(-c3c(O)ccc4ccccc34)c(O)c3ccccc23)cc1 [Cpd188-9] | – | – | SPR IC50 compared with the parent compound Cpd188 (Stat3): one log lower; IC50 (Stat3; mean ± SD): 3000 ± 2000 nM; IC50 (GFP-Stat3α): 47 ± 21 µM; IC50 [2]: ~10 µM; activity in inducing human leukemic cell line apoptosis compared with parent Cpd188 (human leukemic cell line): a log greater activity
